Source: article PMC12304285 (British Journal of Cancer, 2025)
Values joined by “and” are separate entries in the source; they are usually repeats but may differ in a detail not shown here. Equal entries are not always repeated. “Also recorded” adds a separate entry of the source. Where two headings read alike, the source gives them in different places.

Assays:
[1] = test system: patients with advanced cancer; experiment: Preliminary antitumour activity by RECIST v1.1 (best objective response, target lesion change, PFS);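 further: same imaging modality as baseline kept at every follow-up, response-evaluable patients had ≥1 measurable non-irradiated target lesion ≥10 mm longest diameter and received ≥1 study dose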
Description: The imaging method used at baseline had to be used at all follow-up visits. The following parameters were estimated: percentage best change in target lesion; duration of response; objective response rate (ORR); and progression-free survival (PFS).
Descriptive statistics were used for all variables, as appropriate, and calculated only when n ≥ 3. Where data were available for <3 patients, only minimum, maximum and number of observations were provided. Percentages were calculated using the analysis set total and for modules or doses, unless otherwise stated. […] PFS, including median time to PFS and PFS rate at a specific timepoint, was summarized using the Kaplan–Meier method. SAS® version 9.4 was used for all analyses. The PK analysis set included dosed patients for whom an adequate PK profile was obtained.

[2] = test system: patients with advanced cancer
Description: A single dose was administered during Cycle 0 and was followed by a drug washout period lasting 3–7 days. […] If either of these conditions was not met, the cohort would be expanded to a minimum of 3, and up to 6, patients in all subsequent cohorts. A Bayesian adaptive design, using all of the available data and considering the pharmacokinetics (PK) from a minimum of 2 or 3 patients enrolled into each dose cohort, was used from this point. Dose escalation was scheduled to be stopped at the maximum tolerated dose (MTD) (defined as 25% of patients in a cohort experiencing a dose-limiting toxicity [DLT] with the required precision [ratio of upper and lower 95% credible limits <5.0]), the maximum feasible dose (MFD) or the recommended Phase II dose (RP2D). Intra-patient dose escalation was permitted as long as predefined criteria were met, including that the planned next higher dose had to be declared tolerated by the SRC based on assessment of 2–6 evaluable patients.
The starting dose of PLD was 40 mg/m^2 intravenously once every 28 days for a maximum of 6 cycles. PLD dose could be escalated to 50 mg/m^2 or de-escalated to 30 mg/m^2 every 28 days with agreement from the SRC. […] Dose escalation was scheduled to be stopped at the MTD (defined as 30% of patients in a cohort experiencing a DLT with the required precision [ratio of upper and lower 95% credible limits <5.0]). Approximately 30 evaluable patients across five cohorts (n = 3–6 per cohort) were originally planned to provide an estimate of MTD.
Definitions of dose-limiting toxicity
DLTs were evaluated during Cycle 0 and Cycle 1 of treatment. Toxicity was graded according to the National Cancer Institute CTCAE v5.0.
A DLT was defined as an AE that occurs from the first dose of study treatment up to and including Cycle 1, Day 28 (the DLT assessment period) that is assessed as unrelated to the disease, intercurrent illness, or concomitant medications and that, despite optimal therapeutic interventions, meets any of the following criteria:
Haematological Toxicities:
• Grade 4 neutropenia lasting >4 days.
• Grade 4 thrombocytopenia.
• Grade 3 neutropenia (ANC ≥500 to <1000 cells/mm3) of any duration accompanied by fever ≥38.5 °C and/or systemic infection.
• Grade 3 thrombocytopenia (25,000 to <50,000/mm3) with bleeding
Non-haematological toxicities:
• Confirmed laboratory abnormalities
• Nausea or vomiting for more than three consecutive days despite administration of maximal anti-emetic therapy
• Diarrhoea for more than three consecutive days despite administration of maximal anti- […]
• QTc prolongation >500 milliseconds or QTcF prolongation from baseline by 60 milliseconds confirmed on at least two separate ECGs
• Any other toxicity that is greater than at baseline AND is clinically significant and/or […]
AND is judged to be a DLT by the SRC
• Any treatment-related event, including significant dose reductions, omissions or delays, judged to be a DLT by the SRC. Examples may include CTCAE Grade 2 toxicities that are clinically significant and/or unacceptable according to the investigator, toxicities that […]
the administration of study treatment in the subsequent cycle by ≥7 consecutive days DLT will not include the following:
• Transient isolated laboratory abnormalities which are not considered clinically significant and resolve to baseline within 72 hours without any intervention […]
• Toxicity unrelated to treatment e.g., related to the underlying disease or disease-related

[3] = 12 patients evaluable for objective response

Cc1cc2ncnn2cc1Nc1ncc2c(n1)n(C1CCOCC1)c(=O)n2C [AZD7648, 7-Methyl-2-[(7-methyl[1,2,4]triazolo[1,5-a]pyridin-6-yl)amino]-9-(tetrahydro-2H-pyran-4-yl)-7,9-dihydro-8H-purin-8-one]
Best objective response: Complete response ([1]; 5 mg BID (n = 1)): 0 n (%) | Best objective response: Death ([1]; 5 mg BID (n = 1)): 0 n (%) | Best objective response: Disease progression ([1]; 5 mg BID (n = 1)): 1 (100.0) n (%) | Best objective response: Not evaluable ([1]; 5 mg BID (n = 1)): 0 n (%) | Best objective response: Partial response ([1]; 5 mg BID (n = 1)): 0 n (%) | Best objective response: Stable disease ([1]; 5 mg BID (n = 1)): 0 n (%) | Best objective response: Complete response ([1]; 5 mg QD (n = 1)): 0 n (%) | Best objective response: Death ([1]; 5 mg QD (n = 1)): 0 n (%) | Best objective response: Disease progression ([1]; 5 mg QD (n = 1)): 0 n (%) | Best objective response: Not evaluable ([1]; 5 mg QD (n = 1)): 0 n (%) | Best objective response: Partial response ([1]; 5 mg QD (n = 1)): 0 n (%) | Best objective response: Stable disease ([1]; 5 mg QD (n = 1)): 1 (100.0) n (%) | Best objective response: Complete response ([1]; 10 mg BID (n = 1)): 0 n (%) | Best objective response: Death ([1]; 10 mg BID (n = 1)): 0 n (%) | Best objective response: Disease progression ([1]; 10 mg BID (n = 1)): 0 n (%) | Best objective response: Not evaluable ([1]; 10 mg BID (n = 1)): 0 n (%) | Best objective response: Partial response ([1]; 10 mg BID (n = 1)): 0 n (%) | Best objective response: Stable disease ([1]; 10 mg BID (n = 1)): 1 (100.0) n (%) | Best objective response: Complete response ([1]; 20 mg BID (n = 1)): 0 n (%) | Best objective response: Death ([1]; 20 mg BID (n = 1)): 0 n (%) | Best objective response: Disease progression ([1]; 20 mg BID (n = 1)): 1 (100.0) n (%) | Best objective response: Not evaluable ([1]; 20 mg BID (n = 1)): 0 n (%) | Best objective response: Partial response ([1]; 20 mg BID (n = 1)): 0 n (%) | Best objective response: Stable disease ([1]; 20 mg BID (n = 1)): 0 n (%) | Best objective response: Complete response ([1]; 40 mg BID (n = 2)): 0 n (%) | Best objective response: Death ([1]; 40 mg BID (n = 2)): 1 (50.0) n (%) | Best objective response: Disease progression ([1]; 40 mg BID (n = 2)): 1 (50.0) n (%) | Best objective response: Not evaluable ([1]; 40 mg BID (n = 2)): 0 n (%) | Best objective response: Partial response ([1]; 40 mg BID (n = 2)): 0 n (%) | Best objective response: Stable disease ([1]; 40 mg BID (n = 2)): 0 n (%) | Best objective response: Complete response ([1]; 80 mg BID (n = 4)): 0 n (%) | Best objective response: Death ([1]; 80 mg BID (n = 4)): 1 (25.0) n (%) | Best objective response: Disease progression ([1]; 80 mg BID (n = 4)): 1 (25.0) n (%) | Best objective response: Not evaluable ([1]; 80 mg BID (n = 4)): 1 (25.0) n (%) | Best objective response: Partial response ([1]; 80 mg BID (n = 4)): 0 n (%) | Best objective response: Stable disease ([1]; 80 mg BID (n = 4)): 1 (25.0) n (%) | Best objective response: Complete response ([1]; 160 mg BID (n = 2)): 0 n (%) | Best objective response: Death ([1]; 160 mg BID (n = 2)): 0 n (%) | Best objective response: Disease progression ([1]; 160 mg BID (n = 2)): 1 (50.0) n (%) | Best objective response: Not evaluable ([1]; 160 mg BID (n = 2)): 0 n (%) | Best objective response: Partial response ([1]; 160 mg BID (n = 2)): 0 n (%) | Best objective response: Stable disease ([1]; 160 mg BID (n = 2)): 1 (50.0) n (%) | patients who died due to disease progression [1, 3]: 16.7% | patients with RECIST disease progression [1, 3]: 41.7% | patients with RECIST stable disease [1, 3]: 33.3% | Best objective response: Complete response ([1]; All cohorts of the module): 0 n (%) | Best objective response: Death ([1]; All cohorts of the module): 2 (16.7) n (%) | Best objective response: Disease progression ([1]; All cohorts of the module): 5 (41.7) n (%) | Best objective response: Not evaluable ([1]; All cohorts of the module): 1 (8.3) n (%) | Best objective response: Partial response ([1]; All cohorts of the module): 0 n (%) | Best objective response: Stable disease ([1]; All cohorts of the module): 4 (33.3) n (%) | Median PFS ([1]; Kaplan–Meier, all dose levels): 1.91 months | PFS rate at 6 months ([1]; Kaplan–Meier, all dose levels): 23.08% | RECIST response observed ([1]; all dose levels): No responses; also recorded: No patient had a RECIST complete or partial response | percentage change in target lesion size from baseline ([1]; one patient with stable disease, 80 mg BID): −29.2% | best percentage change from baseline in target lesion size, increase of the patient capped in the waterfall plot ([1]; single patient): 108.33% | Any AE leading to death ([2]; 5 mg BID (n = 1)): 0 n (%) | Any AZD7648-related AE leading to death ([2]; 5 mg BID (n = 1)): 0 n (%) | Any AE leading to death ([2]; 5 mg QD (n = 1)): 0 n (%) | Any AZD7648-related AE leading to death ([2]; 5 mg QD (n = 1)): 0 n (%) | Any AE leading to death ([2]; 10 mg BID (n = 1)): 0 n (%) | Any AZD7648-related AE leading to death ([2]; 10 mg BID (n = 1)): 0 n (%) | Any AE leading to death ([2]; 20 mg BID (n = 1)): 0 n (%) | Any AZD7648-related AE leading to death ([2]; 20 mg BID (n = 1)): 0 n (%) | Any AE leading to death ([2]; 40 mg BID (n=3)): 0 n (%) | Any AZD7648-related AE leading to death ([2]; 40 mg BID (n=3)): 0 n (%) | Any AE leading to death ([2]; 80 mg BID (n = 4)): 1 (25.0) n (%) | Any AZD7648-related AE leading to death ([2]; 80 mg BID (n = 4)): 0 n (%) | Any AE leading to death ([2]; 160 mg BID (n=3)): 0 n (%) | Any AZD7648-related AE leading to death ([2]; 160 mg BID (n=3)): 0 n (%) | TEAE Anaemia ([2]; Any grade): 4 (28.6) n (%) | TEAE Diarrhoea ([2]; Any grade): 4 (28.6) n (%) | TEAE Nausea ([2]; Any grade): 4 (28.6) n (%) | TEAE Neutropenia ([2]; Any grade): 2 (14.3) n (%) | TEAE Urinary tract infection ([2]; Any grade): 2 (14.3) n (%) | TEAE Vomiting ([2]; Any grade): 4 (28.6) n (%) | Any treatment-related grade 3/4 AE, related to AZD7648 ([2]; all dose levels): 4 (28.6) n (%) | Death ([2]; all dose levels): 4 (28.6) n (%) | patients with nausea ([2]; all dose levels): 28.6% and ~ 30% | patients with neutropenia ([2]; all dose levels): 14.3% | patients with vomiting ([2]; all dose levels): 28.6% and ~ 30% | Any AE ([2]; human, in vivo): 12 (85.7) n (%) | Any DLT ([2]; human, in vivo): 1 (7.1) n (%) | Any SAE ([2]; human, in vivo): 5 (35.7) n (%) | TEAE Anaemia ([2]; human, in vivo): 1 (7.1) n (%) | TEAE Diarrhoea ([2]; human, in vivo): 1 (7.1) n (%) | TEAE Nausea ([2]; human, in vivo): 0 n (%) | TEAE Neutropenia ([2]; human, in vivo): 1 (7.1) n (%) | TEAE Urinary tract infection ([2]; human, in vivo): 0 n (%) | TEAE Vomiting ([2]; human, in vivo): 0 n (%) | patients with gastrointestinal disorders ([2]; human, in vivo): 64.3% | patients who experienced TEAEs ([2]; human, in vivo, 2.9 months): 85.7% | patients with abdominal pain ([2]; human, in vivo, 2.9 months): ~ 20% | patients with decreased appetite ([2]; human, in vivo, 2.9 months): ~ 20% | patients with fatigue ([2]; human, in vivo, 2.9 months): ~ 20% | maximum tolerated dose (MTD) ([2]; monotherapy, escalation paused at 160 mg BID continuous dosing): an MTD could not be declared | DLT reported (nature) ([2]; one patient, AZD7648 160 mg BID): grade 4 increased alanine aminotransferase (ALT) and aspartate aminotransferase (AST)
